The assay deals with Poly [ADP-ribose] polymerase 2 (Homo sapiens, UniProt Q9UGN5). Briefly: Inhibition of N-terminal 6His-tagged full-length recombinant human PARP2 by fluorescence anisotropy assay.

What is called IC50 is the midpoint of a concentration-inhibition curve.

Sequence of Poly [ADP-ribose] polymerase 2 (Q9UGN5 whole entry): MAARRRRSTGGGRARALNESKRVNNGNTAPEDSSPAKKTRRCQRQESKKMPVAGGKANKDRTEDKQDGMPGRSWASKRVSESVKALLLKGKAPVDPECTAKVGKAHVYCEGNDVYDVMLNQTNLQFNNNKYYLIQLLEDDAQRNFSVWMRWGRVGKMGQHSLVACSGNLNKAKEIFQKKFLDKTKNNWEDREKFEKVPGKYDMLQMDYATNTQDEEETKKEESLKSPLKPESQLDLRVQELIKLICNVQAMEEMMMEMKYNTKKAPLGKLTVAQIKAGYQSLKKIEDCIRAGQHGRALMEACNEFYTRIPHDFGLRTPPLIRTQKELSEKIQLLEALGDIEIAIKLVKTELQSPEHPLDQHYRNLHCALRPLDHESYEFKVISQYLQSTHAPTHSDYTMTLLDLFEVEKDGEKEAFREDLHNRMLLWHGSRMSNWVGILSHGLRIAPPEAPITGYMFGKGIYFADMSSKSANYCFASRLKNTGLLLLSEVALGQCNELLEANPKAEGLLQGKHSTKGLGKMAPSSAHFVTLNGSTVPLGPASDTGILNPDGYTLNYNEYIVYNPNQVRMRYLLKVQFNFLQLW

`CNC(=O)c1ccc(N2CCN(Cc3ccc4nc(C)c(=O)[nH]c4c3F)CC2)c(C)n1` [5-[4-[(5-fluoro-2-methyl-3-oxo-4H-quinoxalin-6-yl)methyl]piperazin-1-yl]-N,6-dimethyl-pyridine-2-carboxamide]: the 50% inhibitory concentration (IC50) was > 100 µM.
